US20100292186A1, “Pharmaceutical Composition for Treatment or Prevention of Liver Cancer” (National University Corporation Nagoya University, priority 2006, published 2010)

Key:
[1] = tested on: human hepatocellular cancer cell line (Hep-3B, Hep-G2, Huh-7 and Alexander); assay: MTT assay, growth inhibition of hepatocellular cancer cell lines; assay type: cell-based
Experimental: Four species of human hepatocellular cancer cell line (Hep-3B. Hep-G2, Huh-7 and Alexander) were cultured under humidified atmosphere of 95% air and 5% carbon dioxide, in a Dulbecco Modified Eagle culture medium (DMEM: SIGMA CHEMICAL Co., St. Louis USA) supplemented with 10% fetal bovine serum (FBS), 100 U/ml penicillin G sulphate and 100 μg/ml streptomycin sulphate.
For lecithin (other name: phosphatidylcholine (hereinafter, referred to as simply “PC”), soybean lecithin with a purity of approximately 96.5% was used, and menatetrenone and Kaytwo N (Kaytwo N: registered trade mark; manufactured by Eisai Co. Ltd.) were provided by Eisai Co. Ltd. For the study, cells (Hep-G2: 1×10^4; others: 1×10^3) in a 96-well microtiter plate were cultured one day prior to beginning the experiments. In the MTT assay method, cells in 96-well microtiter were cultured several days (2 to 4 days) in the presence of PC (1×10^−8 to 1×10^−4M) and menatetrenone (1×10^−7 to 1×10^−4 M) or Kaytwo N (registered trade mark; manufactured by Eisai Co. Ltd.) (regarding menatetrenone: […] to 1×10^−4M). […] The survival rate was analyzed by the MTT assay method using the Tetra Color One Kit. […]
Significant differences were evaluated by the Mann-Whitney U test according to StatView 5.0 (Abacus Concepts, Berkley, Calif.). […]

[2] = tested on: human hepatocellular cancer cell lines (Hep-3B, Hep-G2, Huh-7 and the like); conditions: literature; cited from earlier work
[3] = tested on: hepatocellular cancer; conditions: administration after treatment of hepatocellular cancer; cited from earlier work
[4] = cited from earlier work

CC(C)=CCC/C(C)=C/CC/C(C)=C/CC/C(C)=C/CC1=C(C)C(=O)c2ccccc2C1=O [menatetrenone, 2-methyl-3-tetraprenyl-1,4-naphthoquinone]
survival rate ([1]; MTT assay, PC 1×10^−8 to 1×10^−4 M, menatetrenone 1×10^−7 to 1×10^−4 M, culture 2 to 4 days, FIGS. 1A-1C): survival rate decreased in the presence menatetrenone depending on the quantity added
multiplication of human hepatocellular cancer cell lines ([1]; each substance alone): demonstrated an inhibitory effect
growth of human hepatocellular cancer cell lines [2]: inhibitory effect
occurrence of PVI (portal venous invasion) [3]: could be suppressed
prognosis / recurrence of hepatocellular cancer [3]: prognosis could be improved by suppressing the recurrence of hepatocellular cancer
solubility in water [4]: almost insoluble in water
